According to the NIST ThermoML archive (doi:10.1016/j.jct.2017.06.002):
± gives the expanded uncertainty stated by the source.

Test: xn = mol fraction of the nth substance listed
Conditions: 100 kPa, Liquid; for viscosity: Concentric cylinders viscometry; for mass density: Vibrating tube method

COCOCOCOC [2,4,6,8-tetraoxanonane] + COCOCOC
Conditions | mass density [kg/m3] | viscosity [mPa·s]
288.15 K, x2 = 0 | 1037.5 ± 2 | 1.259 ± 0.051
288.15 K, x2 = 0.06 | 1034.7 ± 2.3 | 1.278 ± 0.051
288.15 K, x2 = 0.12 | 1031.3 ± 2.2 | 1.281 ± 0.051
288.15 K, x2 = 0.18 | 1029.5 ± 2.1 | 1.273 ± 0.051
288.15 K, x2 = 0.24 | 1027.1 ± 2.1 | 1.261 ± 0.051
288.15 K, x2 = 0.35 | 1024.2 ± 2.1 | 1.228 ± 0.051
288.15 K, x2 = 0.45 | 1021.1 ± 2.1 | 1.185 ± 0.051
288.15 K, x2 = 0.55 | 1018.1 ± 2.1 | 1.142 ± 0.051
288.15 K, x2 = 0.65 | 1014.3 ± 2.2 | 1.096 ± 0.051
288.15 K, x2 = 0.74 | 1010.1 ± 2.2 | 1.051 ± 0.052
288.15 K, x2 = 0.83 | 1006.2 ± 2.2 | 1.001 ± 0.051
288.15 K, x2 = 0.92 | 1002.3 ± 2.2 | 0.9612 ± 0.051
293.15 K, x2 = 0 | 1030.2 ± 2 | 1.166 ± 0.051
293.15 K, x2 = 0.06 | 1028.4 ± 2.1 | 1.174 ± 0.051
293.15 K, x2 = 0.12 | 1025.9 ± 2.1 | 1.177 ± 0.051
293.15 K, x2 = 0.18 | 1024.5 ± 2.1 | 1.17 ± 0.051
293.15 K, x2 = 0.24 | 1022.7 ± 2.1 | 1.159 ± 0.051
293.15 K, x2 = 0.35 | 1019.5 ± 2.1 | 1.128 ± 0.051
293.15 K, x2 = 0.45 | 1016.1 ± 2.1 | 1.093 ± 0.051
293.15 K, x2 = 0.55 | 1012.8 ± 2.1 | 1.058 ± 0.051
293.15 K, x2 = 0.65 | 1009.1 ± 2.2 | 1.021 ± 0.051
293.15 K, x2 = 0.74 | 1005.3 ± 2.2 | 0.9894 ± 0.051
293.15 K, x2 = 0.83 | 1001.7 ± 2.2 | 0.9628 ± 0.051
293.15 K, x2 = 0.92 | 998.2 ± 2.1 | 0.9384 ± 0.051
298.15 K, x2 = 0 | 1023.4 ± 2 | 1.084 ± 0.051
298.15 K, x2 = 0.06 | 1022.3 ± 2 | 1.093 ± 0.051
298.15 K, x2 = 0.12 | 1021.2 ± 2.1 | 1.098 ± 0.051
298.15 K, x2 = 0.18 | 1019.5 ± 2.1 | 1.093 ± 0.051
298.15 K, x2 = 0.24 | 1018.1 ± 2.1 | 1.084 ± 0.051
298.15 K, x2 = 0.35 | 1014.5 ± 2.1 | 1.059 ± 0.051
298.15 K, x2 = 0.45 | 1011.2 ± 2.1 | 1.032 ± 0.051
298.15 K, x2 = 0.55 | 1007.8 ± 2.1 | 1.002 ± 0.051
298.15 K, x2 = 0.65 | 1004.1 ± 2.1 | 0.9754 ± 0.051
298.15 K, x2 = 0.74 | 1000.5 ± 2.2 | 0.9543 ± 0.051
298.15 K, x2 = 0.83 | 996.4 ± 2.2 | 0.9353 ± 0.051
298.15 K, x2 = 0.92 | 993 ± 2.1 | 0.9189 ± 0.051
303.15 K, x2 = 0 | 1016.6 ± 2 | 1.028 ± 0.051
303.15 K, x2 = 0.06 | 1016.4 ± 2 | 1.038 ± 0.051
303.15 K, x2 = 0.12 | 1015.9 ± 2 | 1.042 ± 0.051
303.15 K, x2 = 0.18 | 1014.5 ± 2.1 | 1.037 ± 0.051
303.15 K, x2 = 0.24 | 1013.1 ± 2.1 | 1.031 ± 0.051
303.15 K, x2 = 0.35 | 1009.9 ± 2.1 | 1.01 ± 0.051
303.15 K, x2 = 0.45 | 1006.5 ± 2.1 | 0.9913 ± 0.051
303.15 K, x2 = 0.55 | 1003.2 ± 2.1 | 0.9667 ± 0.051
303.15 K, x2 = 0.65 | 999.3 ± 2.2 | 0.9452 ± 0.051
303.15 K, x2 = 0.74 | 995.5 ± 2.2 | 0.9283 ± 0.051
303.15 K, x2 = 0.83 | 991.3 ± 2.2 | 0.9135 ± 0.051
303.15 K, x2 = 0.92 | 987.6 ± 2.2 | 0.9007 ± 0.051
308.15 K, x2 = 0 | 1011 ± 2 | 0.9921 ± 0.051
308.15 K, x2 = 0.06 | 1011.01 ± 2 | 0.9966 ± 0.051
308.15 K, x2 = 0.12 | 1010.7 ± 2 | 0.9977 ± 0.051
308.15 K, x2 = 0.18 | 1010.32 ± 2 | 0.9959 ± 0.051
308.15 K, x2 = 0.24 | 1008.6 ± 2.1 | 0.9894 ± 0.051
308.15 K, x2 = 0.35 | 1005.6 ± 2.1 | 0.9741 ± 0.051
308.15 K, x2 = 0.45 | 1002.1 ± 2.1 | 0.9577 ± 0.051
308.15 K, x2 = 0.55 | 998.9 ± 2.1 | 0.938 ± 0.051
308.15 K, x2 = 0.65 | 995 ± 2.2 | 0.9204 ± 0.051
308.15 K, x2 = 0.74 | 990.8 ± 2.2 | 0.9067 ± 0.051
308.15 K, x2 = 0.83 | 986.8 ± 2.2 | 0.8938 ± 0.051
308.15 K, x2 = 0.92 | 982.8 ± 2.2 | 0.8828 ± 0.051
313.15 K, x2 = 0 | 1005 ± 2 | 0.9521 ± 0.05
313.15 K, x2 = 0.06 | 1006.5 ± 2 | 0.9668 ± 0.051
313.15 K, x2 = 0.12 | 1007 ± 2 | 0.9724 ± 0.051
313.15 K, x2 = 0.18 | 1006.3 ± 2 | 0.9671 ± 0.051
313.15 K, x2 = 0.24 | 1005.5 ± 2.1 | 0.9597 ± 0.051
313.15 K, x2 = 0.35 | 1002.4 ± 2.1 | 0.9453 ± 0.051
313.15 K, x2 = 0.45 | 998.3 ± 2.1 | 0.9308 ± 0.051
313.15 K, x2 = 0.55 | 994.9 ± 2.1 | 0.916 ± 0.051
313.15 K, x2 = 0.65 | 990.8 ± 2.2 | 0.9008 ± 0.051
313.15 K, x2 = 0.74 | 987 ± 2.2 | 0.8876 ± 0.051
313.15 K, x2 = 0.83 | 983 ± 2.2 | 0.8758 ± 0.051
313.15 K, x2 = 0.92 | 979 ± 2.3 | 0.8652 ± 0.051

COCOCOCOCOC [2,4,6,8,10-pentaoxaundecane] + COCOCOC
Conditions | mass density [kg/m3] | viscosity [mPa·s]
288.15 K, x2 = 0 | 1078.8 ± 2 | 2.207 ± 0.051
288.15 K, x2 = 0.12 | 1069.8 ± 2.5 | 1.99 ± 0.062
288.15 K, x2 = 0.24 | 1061.6 ± 2.5 | 1.788 ± 0.061
288.15 K, x2 = 0.35 | 1053.5 ± 2.5 | 1.608 ± 0.06
288.15 K, x2 = 0.45 | 1045.4 ± 2.6 | 1.449 ± 0.058
288.15 K, x2 = 0.55 | 1037.2 ± 2.6 | 1.318 ± 0.056
288.15 K, x2 = 0.65 | 1029 ± 2.6 | 1.209 ± 0.055
288.15 K, x2 = 0.74 | 1021 ± 2.7 | 1.119 ± 0.054
288.15 K, x2 = 0.83 | 1013.2 ± 2.6 | 1.043 ± 0.053
288.15 K, x2 = 0.92 | 1005.8 ± 2.6 | 0.977 ± 0.052
293.15 K, x2 = 0 | 1073.3 ± 2 | 2.015 ± 0.051
293.15 K, x2 = 0.12 | 1064.6 ± 2.4 | 1.835 ± 0.058
293.15 K, x2 = 0.24 | 1056.5 ± 2.4 | 1.669 ± 0.058
293.15 K, x2 = 0.35 | 1048.6 ± 2.5 | 1.518 ± 0.058
293.15 K, x2 = 0.45 | 1040.6 ± 2.6 | 1.378 ± 0.057
293.15 K, x2 = 0.55 | 1032.6 ± 2.6 | 1.265 ± 0.055
293.15 K, x2 = 0.65 | 1024.6 ± 2.6 | 1.166 ± 0.054
293.15 K, x2 = 0.74 | 1016.7 ± 2.6 | 1.082 ± 0.053
293.15 K, x2 = 0.83 | 1009 ± 2.6 | 1.019 ± 0.052
293.15 K, x2 = 0.92 | 1001.8 ± 2.6 | 0.962 ± 0.052
298.15 K, x2 = 0 | 1068.2 ± 2 | 1.848 ± 0.051
298.15 K, x2 = 0.12 | 1059.7 ± 2.4 | 1.697 ± 0.056
298.15 K, x2 = 0.24 | 1051.9 ± 2.4 | 1.557 ± 0.056
298.15 K, x2 = 0.35 | 1043.9 ± 2.5 | 1.43 ± 0.056
298.15 K, x2 = 0.45 | 1036 ± 2.6 | 1.315 ± 0.055
298.15 K, x2 = 0.55 | 1028 ± 2.6 | 1.212 ± 0.054
298.15 K, x2 = 0.65 | 1020.1 ± 2.6 | 1.125 ± 0.053
298.15 K, x2 = 0.74 | 1012.1 ± 2.7 | 1.05 ± 0.053
298.15 K, x2 = 0.83 | 1004.4 ± 2.6 | 0.9918 ± 0.052
298.15 K, x2 = 0.92 | 996.8 ± 2.6 | 0.943 ± 0.051
303.15 K, x2 = 0 | 1063.4 ± 2 | 1.703 ± 0.051
303.15 K, x2 = 0.12 | 1055.2 ± 2.4 | 1.575 ± 0.055
303.15 K, x2 = 0.24 | 1047.3 ± 2.4 | 1.452 ± 0.055
303.15 K, x2 = 0.35 | 1039.4 ± 2.5 | 1.344 ± 0.054
303.15 K, x2 = 0.45 | 1031.5 ± 2.6 | 1.243 ± 0.054
303.15 K, x2 = 0.55 | 1023.5 ± 2.6 | 1.153 ± 0.053
303.15 K, x2 = 0.65 | 1015.4 ± 2.6 | 1.079 ± 0.053
303.15 K, x2 = 0.74 | 1007.4 ± 2.7 | 1.017 ± 0.052
303.15 K, x2 = 0.83 | 999.4 ± 2.7 | 0.97 ± 0.051
303.15 K, x2 = 0.92 | 991.7 ± 2.7 | 0.9255 ± 0.051
308.15 K, x2 = 0 | 1059.1 ± 2 | 1.576 ± 0.051
308.15 K, x2 = 0.12 | 1050.9 ± 2.4 | 1.466 ± 0.054
308.15 K, x2 = 0.24 | 1043 ± 2.4 | 1.361 ± 0.054
308.15 K, x2 = 0.35 | 1035 ± 2.5 | 1.264 ± 0.054
308.15 K, x2 = 0.45 | 1027.2 ± 2.6 | 1.175 ± 0.053
308.15 K, x2 = 0.55 | 1019.2 ± 2.6 | 1.099 ± 0.052
308.15 K, x2 = 0.65 | 1011.3 ± 2.6 | 1.036 ± 0.052
308.15 K, x2 = 0.74 | 1003.2 ± 2.7 | 0.9843 ± 0.051
308.15 K, x2 = 0.83 | 995 ± 2.7 | 0.943 ± 0.051
308.15 K, x2 = 0.92 | 986.9 ± 2.8 | 0.9043 ± 0.051
313.15 K, x2 = 0 | 1055.2 ± 2 | 1.464 ± 0.051
313.15 K, x2 = 0.12 | 1047.2 ± 2.4 | 1.371 ± 0.053
313.15 K, x2 = 0.24 | 1039.4 ± 2.4 | 1.278 ± 0.053
313.15 K, x2 = 0.35 | 1031.5 ± 2.5 | 1.194 ± 0.053
313.15 K, x2 = 0.45 | 1023.7 ± 2.5 | 1.117 ± 0.053
313.15 K, x2 = 0.55 | 1015.8 ± 2.6 | 1.05 ± 0.052
313.15 K, x2 = 0.65 | 1007.9 ± 2.6 | 0.9955 ± 0.051
313.15 K, x2 = 0.74 | 999.8 ± 2.7 | 0.9504 ± 0.051
313.15 K, x2 = 0.83 | 991.3 ± 2.8 | 0.916 ± 0.051
313.15 K, x2 = 0.92 | 982.8 ± 2.8 | 0.8847 ± 0.051
